Data reported in article PMC11052316, “New Transferrin Receptor-Targeted Peptide–Doxorubicin Conjugates: Synthesis and In Vitro Antitumor Activity” (Molecules, 2024).
Like-named read-outs stand apart in the source and are kept apart here. Square brackets hold non-standard residues; d marks the D form. Peptide text beside a SMILES is read from it. * marks the point of attachment. X1 = COc1cccc2c1C(=O)c1c(O)c3c(c(O)c1C2=O)C[C@@](O)(C(=O)CO)C[C@@H]3O[C@H]1C[C@H](NC(=O)CCS*)[C@H](O)[C@H](C)O1

What was measured:
[1] = Reduction-triggered degradation / drug release by GSH; format: physicochemical; conditions: 37 °C; for remaining at 1 h, 100 µM: read-out: conjugate remained undegraded; for t1/2 of degradation in 5 mM GSH: intact conjugate by HPLC, mean ± SD
Experimental: A stock solution of ^LT7-SS-DOX or ^DT7-SS-DOX was diluted by adding 5 mM or 5 μM GSH dissolved in acetonitrile-PBS (3:7, v/v) to a final volume of 800 μL with 100 μM conjugate, and the mixture was incubated at 37 °C. Aliquots (100 μL) were taken from the incubation solution at scheduled time intervals and diluted with acetonitrile–PBS (3:7, v/v, 200 μL). After filtration, the intact conjugate that remained in the sample was analyzed by HPLC.

[2] = In vitro stability of conjugates in mouse serum; format: in vitro ADME; conditions: 37 °C; for half-life at 100 µM: mouse serum (200 µL in 800 µL, diluted with water), 80 μL of 1 mM conjugate stock + 520 μL ultra-pure water + 200 μL mouse serum, methanol quench, centrifugation, intact PDC by HPLC (C18, 254 nm), mean ± SD, read-out: t1/2 of degradation in mouse serum (converted)
Experimental: The in vitro stability experiment of the conjugates was conducted by co-incubation with mouse serum, as previously described, with minor modifications. An 80 μL of ^LT7-SS-DOX or ^DT7-SS-DOX stock solution (1 mM) was diluted by adding ultra-pure water (520 μL) and mouse serum (200 μL). The mixture was incubated at 37 °C, aliquots (100 μL) were taken at scheduled time intervals, and then methanol (300 μL) was added to terminate the incubation. After centrifugation at 10,000 rpm for 10 min, the intact PDC that remained in the supernatant was analyzed by HPLC.

HepG2 cells [3] = assay: In vitro cytotoxicity, CCK-8 assay; format: cell-based, human; conditions: for cell viability: 48 h, CCK-8
Experimental: (§1) Human HepG2 hepatocellular carcinoma cells and human U87 glioblastoma cells were purchased from Procell Life Science & Technology Co., Ltd. (Wuhan, China), human A549 lung carcinoma cells were obtained from the School of Basic Medical Sciences, Chengde Medical University, human LO2 normal hepatic cells were purchased from Jennio Biotech Co., Ltd. (Guangzhou, China). The cells were cultured in DMEM (HepG2), MEM containing 1% non-essential amino acids (U87), and RPMI-1640 (A549 and LO2), supplemented with 10% fetal bovine serum (FBS) and 1% penicillin/streptomycin at 37 °C in a humidified atmosphere with 5% CO2.
(§2) A549, HepG2, U87, and LO2 cells were each seeded in 96-well cell culture plates at a density of 6 × 10^3 cells per well and incubated at 37 °C for 24 h. Then, cells were treated with serial concentrations of free DOX or the peptide–DOX conjugates for 48 h. After incubation, CCK-8 (10 μL) was added to each well and incubated for an additional 2 h. The absorbance of each well was measured at 450 nm with a reference wavelength of 630 nm by using a Multiskan GO microplate reader (Thermo Fisher Scientific, Waltham, MA, USA). Data for each cell line treated with free DOX or PDCs were obtained from three independent experiments.

U87 cells [4] = assay: In vitro cytotoxicity, CCK-8 assay; format: cell-based, human; conditions: for cell viability: 48 h, CCK-8; for IC50: U87, 48 h, CCK-8, mean ± SD (n = 3)
Experimental: as §1, §2

A549 cells [5] = assay: In vitro cytotoxicity, CCK-8 assay; format: cell-based, human; conditions: for cell viability: 48 h, CCK-8
Experimental: as §1, §2

HepG2 cells [6] = assay: Confocal microscopy analysis of cellular uptake; format: cell-based, human
Experimental: (§3) A549, HepG2, U87, or LO2 cells were seeded on glass coverslips (5 × 10^4 cells/well) in 24-well cell culture plates and incubated at 37 °C for 24 h. Then, cells were treated with the peptide–DOX conjugates (equivalent DOX concentration of 10 μM) for 4 and 12 h, respectively. Cells treated with free DOX (10 μM) for 4 h were used as the positive control. After the drugs in each well were discarded, cells were washed three times with PBS and fixed with 4% paraformaldehyde for 12 h. Cell nuclei were stained with DAPI for 8 min. The fluorescent images of cells were observed by using a confocal laser scanning microscope (Olympas FV3000).
(§4) After removal of the peptide solution, cells were washed three times with PBS and incubated with the ^DT7-SS-DOX conjugate (equivalent DOX concentration of 10 μM) for 4 h. Cell fixation, staining, and cellular uptake analysis by confocal microscopy were conducted as aforementioned methods.

U87 cells [7] = assay: Confocal microscopy analysis of cellular uptake; format: cell-based, human
Experimental: as §3, §4

A549 cells [8] = assay: Confocal microscopy analysis of cellular uptake; format: cell-based, human
Experimental: as §3, §4

LO2 cells [9] = assay: In vitro cytotoxicity, CCK-8 assay; format: cell-based, human; conditions: LO2, 48 h, CCK-8, mean ± SD (n = 3)
Experimental: as §1, §2

LO2 cells [10] = assay: Confocal microscopy analysis of cellular uptake; format: cell-based, human; conditions: LO2, 10 μM, 4 h, confocal laser scanning microscopy
Experimental: as §3

[11] = 5 mM GSH in acetonitrile-PBS (3:7, v/v), 100 μM conjugate, 1 h, HPLC, n = 3
[12] = 5 mM GSH in acetonitrile-PBS (3:7, v/v), 100 μM conjugate, n = 3

CC[C@H](C)[C@H](NC(=O)[C@H](C)NC(=O)[C@H](Cc1c[nH]cn1)NC(=O)[C@@H](N)CSSCCC(=O)N[C@H]1C[C@H](O[C@H]2C[C@](O)(C(=O)CO)Cc3c(O)c4c(c(O)c32)C(=O)c2c(OC)cccc2C4=O)O[C@@H](C)[C@H]1O)C(=O)N[C@@H](Cc1ccc(O)cc1)C(=O)N1CCC[C@H]1C(=O)N[C@@H](CCCNC(=N)N)C(=O)N[C@@H](Cc1c[nH]cn1)C(=O)O [^LT7-SS-DOX]
remaining at 1 h, 100 µM ([1]; 5 μM GSH in acetonitrile-PBS (3:7, v/v), 100 μM conjugate, 1 h, HPLC, n = 3): 93.7%
conjugate remained undegraded [1, 11]: completely degraded
t1/2 of degradation in 5 mM GSH [1, 12]: 0.26 ± 0.01 h
intact conjugate in mouse serum at 1 h ([2]; 80 μL of 1 mM stock + 520 μL water + 200 μL mouse serum, 1 h, HPLC): almost entirely degraded
half-life at 100 µM [2]: 0.37 ± 0.02 h
cell viability (HepG2 cells [3]; HepG2, equal DOX concentration of 20 µM): 73.1%
cell viability (HepG2 cells [3]; HepG2, equal DOX concentration of 40 µM): 61.5%
cell viability (U87 cells [4]; U87, equal DOX concentration of 20 µM): 95.1%
cell viability (U87 cells [4]; U87, equal DOX concentration of 40 µM): 41.0%
cell viability (A549 cells [5]; A549, equal DOX concentration of 20 µM): 83.2%
cell viability (A549 cells [5]; A549, equal DOX concentration of 40 µM): 67.2%

CC[C@@H](C)[C@@H](NC(=O)[C@@H](Cc1ccc(O)cc1)NC(=O)[C@H]1CCCN1C(=O)[C@@H](CCCNC(=N)N)NC(=O)[C@H](N)Cc1c[nH]cn1)C(=O)N[C@H](C)C(=O)N[C@H](Cc1c[nH]cn1)C(=O)N[C@H](CSSCCC(=O)N[C@H]1C[C@H](O[C@H]2C[C@](O)(C(=O)CO)Cc3c(O)c4c(c(O)c32)C(=O)c2c(OC)cccc2C4=O)O[C@@H](C)[C@H]1O)C(=O)O [^DT7-SS-DOX] (H-[dH][dR][dP][dY][dI][dA][dH][dC](X1)-OH)
fluorescence intensity after pre-treatment with TfR affinity peptide versus without (TfR competitive inhibition assay) (HepG2 cells [6]; HepG2, pre-treated with TfR affinity peptide 100 μM 8 h, then conjugate at equivalent DOX 10 μM for 4 h): lower
fluorescence intensity after pre-treatment with TfR affinity peptide versus without (TfR competitive inhibition assay) (U87 cells [7]; U87, pre-treated with TfR affinity peptide 100 μM 8 h, then conjugate at equivalent DOX 10 μM for 4 h): lower
fluorescence intensity after pre-treatment with TfR affinity peptide versus without (TfR competitive inhibition assay) (A549 cells [8]; A549, pre-treated with TfR affinity peptide 100 μM 8 h, then conjugate at equivalent DOX 10 μM for 4 h): lower
remaining at 1 h, 100 µM [1, 11]: 72.1%
t1/2 of degradation in 5 mM GSH [1, 12]: 1.93 ± 0.13 h
t1/2 in 5 mM GSH, times longer than that of ^LT7-SS-DOX ([1]; 5 mM GSH): ~8 times
half-life at 100 µM [2]: 8.58 ± 0.85 h
IC50 (HepG2 cells [3]; HepG2, 48 h, CCK-8, mean ± SD (n = 3)): 7.01 ± 1.64 µM
IC50 (U87 cells [4]): 5.7 ± 0.22 µM
IC50 (A549 cells [5]; A549, 48 h, CCK-8, mean ± SD (n = 3)): 20.6 ± 4.81 µM
IC50 (LO2 cells [9]): > 100 µM

COc1cccc2c1C(=O)c1c(O)c3c(c(O)c1C2=O)C[C@@](O)(C(=O)CO)C[C@@H]3O[C@H]1C[C@H](N)[C@H](O)[C@H](C)O1 [DOX, Doxorubicin]
location of red (DOX) fluorescence in cells (HepG2 cells [6]; HepG2, 10 μM, 4 h, confocal laser scanning microscopy): located in the cell nuclei
location of red (DOX) fluorescence in cells (U87 cells [7]; U87, 10 μM, 4 h, confocal laser scanning microscopy): located in the cell nuclei
location of red (DOX) fluorescence in cells (A549 cells [8]; A549, 10 μM, 4 h, confocal laser scanning microscopy): located in the cell nuclei
IC50 (U87 cells [4]): 1.65 ± 0.2 µM
IC50 (LO2 cells [9]): 1.29 ± 0.18 µM
location of red (DOX) fluorescence in cells (LO2 cells [10]): located in the cell nuclei
